{
  "source": "patent US7670785B2",
  "about": "“Polynucleotides and polypeptides associated with the development of rheumatoid arthritis” (Bristol-Myers Squibb Company, priority 2001, dated 2010)",
  "molecules": {"B1": {"name": "soluble IL-15 receptor alpha chain: soluble IL-15 receptor alpha chain administered to mice (protein, UniProt Q60819 33-205, looked up)", "extracellular domain": "GTTCPPPVSIEHADIRVKNYSVNSRERYVCNSGFKRKAGTSTLIECVINKNTNVAHWTTPSLKCIRDPSLAHYSPVPTVVTPKVTSQPESPSPSAKEPEAFSPKSDTAMTTETAIMPGSRLTPSQTTSAGTTGTGSHKSSRAPSLAATMTLEPTASTSLRITEISPHSSKMTK", "modifications": "extracellular domain", "notes": "soluble IL-15 receptor alpha chain administered to mice"}, "B2": {"name": "IL-17b: full length IL-17b sequence fused to the human IgG1 Fc region (protein)", "chain": "QPRSPKSKRKGQGRPGPLAPGPHQVPLDLVSRMKPYARMEEYERNIEEMVAQLRNSSELAQRKCEVNLQLWMSNKRSLSPWGYSINHDPSRIPVDLPEARCLCLGCVNPFTMQEDRSMVSVPVFSQVPVRRRLCPPPPRTGPCRQRAVMETIAVGCTCIF"}, "B3": {"name": "IL-1a: cytokine used as stimulus of synovial fibroblasts (Peprotech) (protein, UniProt P01583 113-271, looked up)", "Interleukin-1 alpha": "SAPFSFLSNVKYNFMRIIKYEFILNDALNQSIIRANDQYLTAAALHNLDEAVKFDMGAYKSSKDDAKITVILRISKTQLYVTAQDEDQPVLLKEMPEIPKTITGSETNLLFFWETHGTKNYFTSVAHPNLFIATKQDYWVCLAGGPPSITDFQILENQA"}},
  "key": {"[1]": {"system": "GBP-5", "assay": "GBP-5 mRNA in stimulated mouse fibroblasts, real time PCR", "type": "cell-based", "details": "2 or 8 hours, TNFα 10 ng/ml or PMA 10 ng/ml, FIG. 90B", "protocol": "(§1) Wild type 3T3 fibroblasts and immortalized fibroblast lines derived from p65 and IkBα germline knockouts were cultured in DMEM with 10% calf serum, glutamax and penicillin/streptomycin. Primary embryonic fibroblasts derived from germline knockouts of relB and p50 were cultured in DMEM with 10% fetal calf serum, glutamax and penicillin/streptomycin. The fibroblasts were plated at 5×10^5/well of a 6 well plate and cultured overnight at 37° C. in 5% CO2. Cells were stimulated for 2 or 8 hours with either medium, human TNFα (10 ng/ml) or PMA (10 ng/ml). At each time point, cells were harvested using trypsin/EDTA, washed one time with PBS, and stored at −80° C.\n(§2) Total RNA was isolated from cells using the RNeasy® Kit from Qiagen (Valencia, Calif.), including the on-the-column DNase digestion procedure. RNA quality and quantity were evaluated using UV spectrometry. Total RNA was used for first-strand cDNA synthesis using the SuperScript™ First-Strand Synthesis System for RT-PCR (Invitrogen, Carlsbad, Calif.) following the manufacturer's instructions with 50 ng of random hexamers.\n(§3) Reactions were performed in a total volume of 40 μl. […]\n(§4) A relative value for the initial target concentration in each reaction was determined using the TaqMan 5700 software. […]"}, "[2]": {"system": "Fc gamma RI", "details": "RA patients, monocytes; cited from earlier work"}, "[3]": {"biological_target": "T1, TNF-α (Homo sapiens, UniProt P01375)", "T1 construct": "host or cells: RA patients (in vivo)", "T1 sequence (P01375 77-233 limits assumed)": "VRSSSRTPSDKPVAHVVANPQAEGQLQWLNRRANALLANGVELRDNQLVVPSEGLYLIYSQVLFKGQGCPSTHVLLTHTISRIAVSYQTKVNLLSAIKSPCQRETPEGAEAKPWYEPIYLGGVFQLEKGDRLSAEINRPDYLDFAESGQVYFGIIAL", "details": "cited from earlier work"}, "[4]": {"system": "IL-1", "details": "RA patients; cited from earlier work"}, "[5]": {"system": "GBP-1", "assay": "GBP-1 expression in stimulated human microvascular endothelial cells, microarray", "type": "cell-based", "details": "three donors, TNFα 10, IL-1β 10, VEGF 30, bFGF 10 ng/ml, FIG. 93A", "protocol": "(§5) Human microvascular endothelial cells from three different donors were obtained from Clonetics (Walkersville, Md.), and cultured in EGM-2 medium (Clonetics). Cells were cultured in 100 mm dishes coated with mouse type IV collagen and allowed to grow to approximately 80% confluency. The cells were then stimulated for 1, 6, or 24 hours with either medium, TNFα (10 ng/ml), or IL-1β (10 ng/ml). At each time point, mRNA was isolated, labeled and used to probe Affymetrix HG_U95Av2 and HG_U95B chips.\n(§6) For VEGF and bFGF stimulations, microvascular endothelial cells from three independent donors were obtained, cultured in 100 mm dishes coated with mouse type IV collagen and allowed to grow to 30% confluency. At this time, the media was replaced with DMEM containing 2% fetal calf serum, and the cells were cultured an additional day. The cells were stimulated for 1, 6, or 24 hours with either medium, VEGF (30 ng/ml) or bFGF (10 ng/ml). At each time point, mRNA was isolated, labeled, and used to probe Affymetrix chips as described above."}, "[6]": {"system": "GBP-5", "assay": "GBP-5 expression in stimulated human microvascular endothelial cells, microarray", "type": "cell-based", "details": "for donors whose cells upregulated GBP-5 mRNA: human microvascular endothelial cells from three donors; for induction of GBP-5: human microvascular endothelial cells, three donors, TNFα 10, IL-1β 10 ng/ml, FIG. 93B", "protocol": "as §5, §6"}, "[7]": {"system": "GBP-1", "assay": "GBP-1 mRNA in stimulated synovial fibroblasts from rheumatoid arthritis patients, microarray", "type": "cell-based, human", "details": "RA synovial fibroblasts; TNFα, IL-1α, IL-17 10 ng/ml, IL-17b-Ig 5 ng/ml; FIG. 94A", "protocol": "Synovial fibroblasts were obtained from Cell Applications, Inc. (San Diego, Calif.), and cultured for 1, 6, or 24 hours with either medium, TNFα (10 ng/ml), IL-1α (10 ng/ml, Peprotech), IL-17 (10 ng/ml, R&D Systems, Minneapolis, Minn.), or IL-17b-Ig fusion protein (5 ng/ml). The IL-17b protein was produced by fusing the full length IL-17b sequence (Shi et al., J. Biol. Chem. 275:19167-19176 (2000)) to the human IgG1 Fc region. At each time point, mRNA was isolated, labeled, and used to probe Affymetrix HG_U95Av2, HG_U95B, HG_U95C, HG_U95D, and HG_U95E chips."}, "[8]": {"system": "mouse GBP-1", "assay": "GBP-1 mRNA in stimulated mouse fibroblasts, real time PCR", "type": "cell-based", "details": "2 or 8 hours, TNFα 10 ng/ml or PMA 10 ng/ml, FIG. 90A", "protocol": "as §1, §2, §3, §4"}, "[9]": {"system": "GBP-5", "assay": "GBP-5 mRNA in resting and stimulated THP-1 monocytes, microarray", "type": "cell-based, human", "details": "IFN-γ 100 U/ml, TNFα 10 ng/ml, LPS 100 ng/ml, FIG. 92B", "protocol": "(§7) For the microarray analyses, THP-1 cells (10^7/group) were cultured at 10^6/ml as above for 1, 6, 24, or 48 hours with either medium, TNFα (10 ng/ml), IFN-γ(100 U/ml), or LPS (100 ng/ml). At each time point, mRNA was isolated, labeled, and used to probe Affymetrix HG_U95Av2, HG_U95B, and HG_U95C chips."}, "[10]": {"system": "GBP-1", "assay": "GBP-1 mRNA in resting and stimulated THP-1 monocytes, microarray", "type": "cell-based, human", "details": "IFN-γ 100 U/ml, TNFα 10 ng/ml, LPS 100 ng/ml, FIG. 92A", "protocol": "as §7"}, "[11]": {"system": "GBP-1", "assay": "LPS-induced GBP-1 mRNA in THP-1 monocytes, real time PCR", "type": "cell-based, human", "details": "THP-1, LPS 100 ng/ml, 2 hour stimulation", "protocol": "(§8) For real time PCR analyses, THP-1 cells (10^7/group) were cultured at 10^6/ml in RPMI containing 10% heat inactivated fetal calf serum, 2 mM L-glutamine with either medium, BMS-205820 (2 uM), or dexamethasone (100 nM) for 30 minutes at 37° C. in 5% CO2. LPS was added to each group (100 ng/ml), and the incubation continued for 0.5-8 hr. At the end of each time point, cells were pelleted, washed one time with 10 ml PBS, and stored at −80° C.\nas §2\n(§9) Reactions were performed in a total volume of 40 μl. The master mix contained SYBR Green I Dye, 50 mM Tris-HCl pH8.3, 75 mM KCl, DMSO, Rox reference dye, 5 mM MgCl2, 2 mM dNTP, Platinum Taq High Fidelity (1 U/reaction), and 0.5 μM of each primer. Eight microliters of diluted cDNA was used in each PCR reaction. […]\nas §4"}, "[12]": {"system": "GBP-5", "assay": "LPS-induced GBP-5 mRNA in THP-1 monocytes, real time PCR", "type": "cell-based, human", "details": "THP-1, LPS 100 ng/ml, 2 hour stimulation", "protocol": "as §8, §2, §9, §4"}, "[13]": {"biological_target": "T2, IL-15 (Mus musculus, UniProt P48346)", "T2 construct": "host or cells: mice (collagen-induced arthritis model)", "T2 sequence (P48346 49-162)": "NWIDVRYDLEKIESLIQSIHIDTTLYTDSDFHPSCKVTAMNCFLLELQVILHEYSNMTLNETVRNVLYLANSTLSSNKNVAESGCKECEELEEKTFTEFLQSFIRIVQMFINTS", "details": "administration to mice; cited from earlier work"}},
  "data": [
    {"molecule": "CCCCCCCCCCCCCC(=O)O[C@@H]1[C@@H](C)[C@@]2(O)[C@@H](C=C(CO)C[C@]3(O)C(=O)C(C)=C[C@@H]23)[C@@H]2C(C)(C)[C@]12OC(C)=O", "note": "[PMA, reference compound]", "values": [
      {"measurement": "steady-state level of GBP-5 mRNA", "setting": "[1]", "value": "not"}
    ]},
    {"molecule": "C[C@]12C=CC(=O)C=C1CC[C@@H]1[C@@H]2[C@@H](O)C[C@@]2(C)[C@H]1CC[C@]2(O)C(=O)CO", "note": "[prednisolone]", "values": [
      {"measurement": "Fc gamma RI expression", "setting": "[2]", "value": "induced down-regulation"}
    ]},
    {"molecule": "Etanercept", "values": [
      {"measurement": "number of swollen joints", "setting": "[3]; RA patients", "value": "significant decrease"},
      {"measurement": "numbers of T cells and plasma cells in the synovium", "setting": "[3]; RA patients", "value": "significant decrease"},
      {"measurement": "expression of VCAM-1 and IL-1 in the synovium", "setting": "[3]; treated patients", "value": "decrease"}
    ]},
    {"molecule": "IL-1Ra: natural inhibitor of IL-1, recombinant human IL-1 receptor antagonist", "values": [
      {"measurement": "clinical symptoms and rate of progressive joint damage", "setting": "[4]", "value": "significantly reduced"}
    ]},
    {"molecule": "IL-1β: cytokine used as stimulus of endothelial cells", "values": [
      {"measurement": "GBP-1 expression", "setting": "[5]", "value": "strongly induced"},
      {"measurement": "donors whose cells upregulated GBP-5 mRNA", "setting": "[6]", "value": "Only one donor"},
      {"measurement": "induction of GBP-5", "setting": "[6]", "value": "variable"}
    ]},
    {"molecule": "IL-17: cytokine used as stimulus of synovial fibroblasts (R&D Systems)", "values": [
      {"measurement": "GBP-1 mRNA induction", "setting": "[7]", "value": "not"}
    ]},
    {"molecule": "TNFα", "values": [
      {"measurement": "GBP-1 mRNA induction", "setting": "[7]", "value": "induced at 1 and 6 hours"},
      {"measurement": "steady-state level of GBP-1 mRNA", "setting": "[8]", "value": "induced increased steady-state levels"},
      {"measurement": "GBP-1 expression", "setting": "[5]", "value": "strongly induced"},
      {"measurement": "steady state level of GBP-5 mRNA", "setting": "[9]", "value": "Much lower levels of expression were induced"},
      {"measurement": "steady-state level of GBP-5 mRNA", "setting": "[1]", "value": "induced increased steady-state levels"},
      {"measurement": "steady state level of GBP-1 mRNA", "setting": "[10]", "value": "Much lower levels of expression were induced"},
      {"measurement": "donors whose cells upregulated GBP-5 mRNA", "setting": "[6]", "value": "two out of three"},
      {"measurement": "induction of GBP-5", "setting": "[6]", "value": "variable"}
    ]},
    {"molecule": "VEGF", "values": [
      {"measurement": "GBP-1 expression", "setting": "[5]", "value": "No induction"}
    ]},
    {"molecule": "basic FGF: growth factor used as stimulus of endothelial cells", "values": [
      {"measurement": "GBP-1 expression", "setting": "[5]", "value": "No induction"}
    ]},
    {"molecule": "interferon-γ: cytokine used as stimulus of THP-1 monocytes", "values": [
      {"measurement": "steady state level of GBP-5 mRNA", "setting": "[9]", "value": "strongly induced"},
      {"measurement": "steady state level of GBP-1 mRNA", "setting": "[10]", "value": "strongly induced"}
    ]},
    {"molecule": "lipopolysaccharide [LPS, reference compound]", "values": [
      {"measurement": "steady-state mRNA level of GBP-1", "setting": "[11]", "value": "significantly increased"},
      {"measurement": "steady state level of GBP-5 mRNA", "setting": "[9]", "value": "Much lower levels of expression were induced"},
      {"measurement": "steady-state mRNA level of GBP-5", "setting": "[12]", "value": "significantly increased"},
      {"measurement": "steady state level of GBP-1 mRNA", "setting": "[10]", "value": "Much lower levels of expression were induced"}
    ]},
    {"molecule": "B1", "values": [
      {"measurement": "collagen-induced arthritis", "setting": "[13]", "value": "prevented"}
    ]},
    {"molecule": "B2", "values": [
      {"measurement": "GBP-1 mRNA induction", "setting": "[7]", "value": "not"}
    ]},
    {"molecule": "B3", "values": [
      {"measurement": "GBP-1 mRNA induction", "setting": "[7]", "value": "induced at 1 and 6 hours"}
    ]}
  ]
}
